This is an account of results in patent US5478842A, “Ether derivatives having 5-lipoxygenase inhibitory activity” (Zeneca Limited, priority 1993, dated 1995).

The target of data set [1] is T1, 5-LO (LTB4) (Homo sapiens, UniProt P09917).
T1 construct: incubating a test compound with heparinised human blood, prior to challenge with the calcium ionophore A23187; from tissue; host or cells: heparinised human whole blood (endogenous enzyme of blood cells)
T1 sequence (P09917 1-674): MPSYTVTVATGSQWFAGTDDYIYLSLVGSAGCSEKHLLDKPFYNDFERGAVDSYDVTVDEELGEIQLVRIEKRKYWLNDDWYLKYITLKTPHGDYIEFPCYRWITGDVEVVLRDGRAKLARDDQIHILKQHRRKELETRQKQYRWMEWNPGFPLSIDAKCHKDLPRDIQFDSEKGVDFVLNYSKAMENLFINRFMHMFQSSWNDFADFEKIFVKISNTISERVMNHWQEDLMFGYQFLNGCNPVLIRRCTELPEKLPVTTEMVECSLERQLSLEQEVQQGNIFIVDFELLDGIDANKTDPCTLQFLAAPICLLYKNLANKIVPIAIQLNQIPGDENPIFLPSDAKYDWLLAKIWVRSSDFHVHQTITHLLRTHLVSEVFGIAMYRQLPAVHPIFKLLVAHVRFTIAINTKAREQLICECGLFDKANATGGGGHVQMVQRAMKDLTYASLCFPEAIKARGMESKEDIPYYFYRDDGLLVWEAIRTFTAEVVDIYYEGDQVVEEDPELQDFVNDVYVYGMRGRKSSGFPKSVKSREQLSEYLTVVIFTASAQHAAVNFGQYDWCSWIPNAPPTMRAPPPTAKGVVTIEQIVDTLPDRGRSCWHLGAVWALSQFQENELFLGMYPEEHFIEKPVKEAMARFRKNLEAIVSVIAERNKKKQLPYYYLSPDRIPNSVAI
The data set is described as follows: Test a): in vitro assay in heparinised human blood challenged with calcium ionophore A23187, LTB4 by radioimmunoassay. The format is cell-based. The procedure:
a) An in vitro assay system involving incubating a test compound with heparinised human blood, prior to challenge with the calcium ionophore A23187 and then indirectly measuring the inhibitory effects on 5-L0 by assaying the amount of LTB4 using specific radioimmunoassays described by Carey and Forder (F. Carey and R. A. Forder, Prostaglandins, Leukotrienes Med., 1986, 22, 57; Prostaglandins, 1984, 28, 666; Brit. J. Pharmacol. 1985, 84, 34P) which involve the use of a protein-LTB4 conjugate produced using the procedure of Young et alia (Prostaglandins, 1983, 26(4), 605-613). The effects of a test compound on the enzyme cyclooxygenase (which is involved in the alternative metabolic pathway for arachidonic acid and gives rise to prostaglandins, thromboxanes and related metabolites) may be measured at the same time using the specific radioimmunoassay for thromboxane B2(TxB2) described by Carey and Forder (see above). This test provides an indication of the effects of a test compound against 5-L0 and also cyclooxygenase in the presence of blood cells and proteins. It permits the selectivity of the inhibitory effect on 5-L0 or cyclooxygenase to be assessed.

For data set [2], the target named is T2, 5-LO (LTB4) (Rattus norvegicus, UniProt P12527).
T2 construct: An in vivo system involving measuring the effects of a test compound administered orally to a group of male rats; from tissue; host or cells: live male rats, zymosan-inflamed subcutaneous air pouch (endogenous enzyme)
T2 sequence (P12527 1-673): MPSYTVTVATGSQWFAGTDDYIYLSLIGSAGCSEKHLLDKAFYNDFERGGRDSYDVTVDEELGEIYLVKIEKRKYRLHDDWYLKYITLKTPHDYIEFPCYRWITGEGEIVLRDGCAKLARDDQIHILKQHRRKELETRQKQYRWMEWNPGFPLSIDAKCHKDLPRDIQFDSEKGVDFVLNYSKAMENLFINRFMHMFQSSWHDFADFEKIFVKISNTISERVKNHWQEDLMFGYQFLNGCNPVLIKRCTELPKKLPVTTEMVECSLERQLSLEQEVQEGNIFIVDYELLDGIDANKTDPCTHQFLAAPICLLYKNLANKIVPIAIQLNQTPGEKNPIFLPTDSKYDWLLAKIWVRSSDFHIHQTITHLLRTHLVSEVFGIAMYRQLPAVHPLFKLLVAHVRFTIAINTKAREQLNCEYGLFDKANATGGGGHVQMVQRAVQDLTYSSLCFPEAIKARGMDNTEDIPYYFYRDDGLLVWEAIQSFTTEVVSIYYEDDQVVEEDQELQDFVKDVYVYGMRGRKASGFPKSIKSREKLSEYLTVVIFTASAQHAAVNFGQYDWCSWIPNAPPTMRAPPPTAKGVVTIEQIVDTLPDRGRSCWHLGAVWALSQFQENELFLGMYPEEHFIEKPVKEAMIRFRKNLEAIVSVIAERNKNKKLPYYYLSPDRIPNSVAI
Briefly: Test c): in vivo zymosan-induced LTB4 liberation in air pouch of male rats, oral. The note with it: 3 h; test c). How it is done:
c) An in vivo system involving measuring the effects of a test compound administered orally to a group of male rats against the liberation of LTB4 induced by zymosan within an air pouch generated within the subcutaneous tissue of the back of the rats. The rats are anaesthetised and air pouches are formed by the injection of sterile air (20 ml). A further injection of air (10 ml) is similarly given after 3 days. At 6 days after the initial air injection the test compound is administered (usually orally as the suspension produced when a solution of the test compound in dimethylsulphoxide is added to hydroxypropylmethylcellulose), followed by the intrapouch injection of zymosan (1 ml of a 1% suspension in physiological saline). After 3 hours the rats are killed, the air pouches are lavaged with physiological saline, and the specific radioimmunoassay described above is used to assay LTB4 in the washings. This test provides an indication of inhibitory effects against 5-L0 in an inflammatory milieu.
Test c): oral ED50 (LTB4) in the range, for example, 0.1-100 mg/kg.

In a further data set the test system is hepatic enzymes. Briefly: Auto-induction on repeat dosing (decrease in C max or AUC). The format is in vivo. The note with it: repeated dosing to a warm-blooded animal. The text has this:
The result is a decrease on repeat dosing of the quantity of the compound present in the animal's blood stream as shown, for example, by a decrease in the maximum concentration achieved (C max) or, for example, a decrease in the exposure of the animal to the compound as measured by the area under the curve (AUC) of a plot of the concentration of the compound in the blood stream versus time after dosing.

Data set [3] is described as follows: Crystallinity / physical form. The format is physicochemical. The text has this: Such non-crystalline compounds are undesirable when consideration is given toward the preparation, purification, analysis, handling and formulation of larger quantities of the compounds.
In another aspect of the invention we have discovered that certain compounds of the invention are crystalline. The crystalline compounds of the invention are those for which a melting point has been given within the Examples provided hereinafter, for example the compounds of Examples 27 and 28. Thus such compounds are of value when their preparation on a larger scale is required. The purification, analysis and handling of a material is facilitated if it is formed in the crystalline state. It is known, for example, that the removal of solvent residues from non-crystalline, oily materials is problematical. In addition the preparation of a pharmaceutical composition comprising a crystalline material is a conventional procedure. The composition may, for example, be in a form suitable for oral use such as a tablet or capsule; or, for example, in a form suitable for administration by inhalation, for example as a finely divided powder or a microcrystalline form. Such options for the formulation of the material are precluded should it be formed in an oily state.

`C[C@H]1C[C@@](O)(c2csc(Sc3ccc4c(c3)CC(=O)N4C)c2)CCO1` [Example 28, (2S,4R)-4-hydroxy-2-methyl-4-[2-(1-methyl-2-oxoindolin-5-ylthio)thien-4-yl]tetrahydropyran]: the IC50 at 5-LO (LTB4) [1] is 20 nM. Also, the 50% effective dose (ED50) at 5-LO (LTB4) [2] was roughly 0.05 mg/kg. The auto-induction result in the data set with hepatic enzymes is “lack to a substantial degree the undesirable property of auto-induction”. Besides, the “crystallinity / physical form” value in data set [3] was “crystalline”.

For the compound `COC1(c2ccc(Sc3ccc4c(c3)CCC(=O)N4C)s2)CCOCC1` [4-methoxy-4-[5-(1-methyl-2-oxo-1,2,3,4-tetrahydroquinolin-6-ylthio)thien-2-yl]tetrahydropyran, reference compound], in the data set on hepatic enzymes, the auto-induction entry is given as “possesses the undesirable property of auto-induction”.

On to `C[C@H]1C[C@@](O)(c2cc(F)cc(S(=O)(=O)c3ccc4c(c3)CCC(=O)N4C)c2)CCO1` [Example 2, (2S,4R)-4-[5-fluoro-3-(1-methyl-2-oxo-1,2,3,4-tetrahydroquinolin-6-ylsulphonyl)phenyl]-4-hydroxy-2-methyltetrahydropyran], for which, on 5-LO (LTB4) [1], the concentration for half-maximal inhibition (IC50) was found to be 30 nM. Moreover, on 5-LO (LTB4) [2], the ED50 is roughly 0.15 mg/kg.

For `C[C@H]1C[C@@](O)(c2cnc(Sc3ccc4c(c3)CCC(=O)N4C)s2)CCO1` [Example 3, (2S,4R)-4-hydroxy-2-methyl-4-[2-(1-methyl-2-oxo-1,2,3,4-tetrahydro-quinolin-6-ylthio)thiazol-5-yl]tetrahydropyran], the half-inhibitory concentration (IC50) on 5-LO (LTB4) [1] came out at 50 nM. In addition, the median effective dose (ED50) at 5-LO (LTB4) [2] is roughly 0.2 mg/kg. In addition, the auto-induction result in the data set with hepatic enzymes was “lack to a substantial degree the undesirable property of auto-induction”.

Regarding `C[C@H]1C[C@@](O)(c2cnc(Sc3ccc4c(c3)CC(=O)N4C)s2)CCO1` [Example 27, (2S,4R)-4-hydroxy-2-methyl-4-[2-(1-methyl-2-oxoindolin-5-ylthio)thiazol-5-yl]tetrahydropyran], the “crystallinity / physical form” value in data set [3] is “crystalline”.

On to `CO[C@]1(c2ccc(Sc3ccc4c(c3)CCC(=S)N4C)s2)CCO[C@@H](C)C1` [(2S,4R)-4-methoxy-2-methyl-4-[5-(1-methyl-2-thioxo-1,2,3,4-tetrahydroquinolin-6-ylthio)thien-2-yl]tetrahydropyran, reference compound], for which, in data set [3], the “crystallinity / physical form” value is listed as “viscous oil”.

Consider `C[C@H]1C[C@@](O)(c2csc(Sc3ccc4c(c3)CCC(=O)N4C)c2)CCO1` [Example 5, (2S,4R)-4-hydroxy-2-methyl-4-[2-(1-methyl-2-oxo-1,2,3,4-tetrahydroquinolin-6-ylthio)thien-4-yl]tetrahydropyran], for which the concentration for half-maximal inhibition (IC50) on 5-LO (LTB4) [1] turned out to be 30 nM. In addition, the 50% effective dose (ED50) on 5-LO (LTB4) [2] was roughly 0.02 mg/kg.

In the case of `C[C@H]1C[C@@](O)(c2csc(S(=O)(=O)c3ccc4c(c3)CCC(=O)N4C)c2)CCO1` [Example 9, (2S,4R)-4-hydroxy-2-methyl-4-[2-(1-methyl-2-oxo-1,2,3,4-tetrahydroquinolin-6-ylsulphonyl)thien-4-yl]tetrahydropyran], in the data set on hepatic enzymes, the auto-induction result was “lack to a substantial degree the undesirable property of auto-induction”.
